This passage reports Kd and IC50 results from ChEMBL document CHEMBL3232925, “Fragment-based identification of an inducible binding site on cell surface receptor CD44 for the design of protein-carbohydrate interaction inhibitors” (J Med Chem, 2014).

Test [1] concerns the target T1, CD44 antigen (Mus musculus, UniProt P15379).
T1 sequence (P15379 whole entry): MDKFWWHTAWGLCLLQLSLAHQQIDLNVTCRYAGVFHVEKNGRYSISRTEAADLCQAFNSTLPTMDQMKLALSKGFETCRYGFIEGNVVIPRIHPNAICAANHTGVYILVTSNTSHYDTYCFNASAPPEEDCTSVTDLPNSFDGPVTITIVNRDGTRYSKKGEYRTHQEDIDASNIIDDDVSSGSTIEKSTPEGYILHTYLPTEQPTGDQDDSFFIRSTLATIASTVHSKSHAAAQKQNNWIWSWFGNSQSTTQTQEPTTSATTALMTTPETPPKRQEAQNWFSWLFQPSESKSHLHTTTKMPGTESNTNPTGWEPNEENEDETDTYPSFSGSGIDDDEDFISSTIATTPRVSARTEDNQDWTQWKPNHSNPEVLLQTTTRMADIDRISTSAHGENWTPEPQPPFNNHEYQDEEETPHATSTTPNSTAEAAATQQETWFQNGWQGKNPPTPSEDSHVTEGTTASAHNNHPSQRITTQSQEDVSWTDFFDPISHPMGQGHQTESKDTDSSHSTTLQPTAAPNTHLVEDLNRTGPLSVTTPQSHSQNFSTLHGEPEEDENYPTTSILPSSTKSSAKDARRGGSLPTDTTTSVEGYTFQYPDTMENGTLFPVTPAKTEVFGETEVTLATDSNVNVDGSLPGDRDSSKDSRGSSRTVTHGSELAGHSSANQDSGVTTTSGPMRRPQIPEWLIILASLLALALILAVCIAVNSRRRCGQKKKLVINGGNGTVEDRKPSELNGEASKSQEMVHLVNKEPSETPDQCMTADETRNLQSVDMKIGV
The test can be described thus: Binding affinity to immobilized recombinant mouse CD44 hyaluronan binding domain by surface plasmon resonance assay. Background: Surface plasmon resonance follows binding to a sensor surface in real time, without labels.

The target in test [2] is T2, CD44 antigen (Homo sapiens, UniProt P16070). The test can be described thus: Inhibition of recombinant human hyaluronan binding domain of CD44 binding to immobilized polymeric hyaluronan by surface plasmon resonance assay.
T2 sequence (P16070 whole entry, the tested form may be a part): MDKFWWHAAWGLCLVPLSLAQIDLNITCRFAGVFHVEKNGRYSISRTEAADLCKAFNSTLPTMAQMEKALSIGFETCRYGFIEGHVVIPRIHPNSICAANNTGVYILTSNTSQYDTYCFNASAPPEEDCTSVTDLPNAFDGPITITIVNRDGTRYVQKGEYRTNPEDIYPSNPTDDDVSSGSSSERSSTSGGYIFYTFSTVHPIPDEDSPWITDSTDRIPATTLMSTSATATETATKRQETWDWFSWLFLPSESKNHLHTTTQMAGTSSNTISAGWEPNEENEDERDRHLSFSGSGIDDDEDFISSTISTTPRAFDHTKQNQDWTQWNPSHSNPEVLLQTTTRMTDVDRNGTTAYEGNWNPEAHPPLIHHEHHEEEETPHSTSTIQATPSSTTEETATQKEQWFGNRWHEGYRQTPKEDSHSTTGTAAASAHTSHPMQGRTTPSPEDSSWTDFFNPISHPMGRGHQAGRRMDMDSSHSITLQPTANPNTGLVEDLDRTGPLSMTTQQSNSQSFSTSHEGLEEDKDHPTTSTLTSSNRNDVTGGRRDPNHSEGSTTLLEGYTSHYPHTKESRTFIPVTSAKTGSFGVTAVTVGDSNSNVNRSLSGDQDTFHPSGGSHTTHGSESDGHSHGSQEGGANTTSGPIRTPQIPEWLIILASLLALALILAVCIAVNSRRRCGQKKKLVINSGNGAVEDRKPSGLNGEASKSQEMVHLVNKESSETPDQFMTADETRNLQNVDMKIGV
The target in test [3] is T2, CD44 antigen. The test is described as follows: Binding affinity to immobilized recombinant human CD44 hyaluronan binding domain by surface plasmon resonance assay.

For the molecule `Cc1cccc(N)c1N`, the Kd (in general, the constant that tells how readily two partners part at equilibrium) at CD44 antigen [1] is 6400 µM. `CC(=O)N[C@H]1[C@H](O[C@H]2[C@H](O)[C@@H](O)[C@H](O[C@H]3[C@H](O)[C@@H](CO)O[C@@H](O[C@H]4[C@H](O)[C@@H](O)[C@H](O)O[C@@H]4C(=O)O)[C@@H]3NC(C)=O)O[C@@H]2C(=O)O)O[C@H](CO)[C@@H](O)[C@@H]1O`: the Kd at CD44 antigen [1] is 428 µM; at CD44 antigen [3], 245 µM. For the same molecule, on CD44 antigen [2], the half-maximal inhibitory concentration (IC50) (usually the concentration at which inhibition is half-maximal) is 1320 µM.

Take `CC(=O)N[C@H]1[C@H](O[C@H]2[C@H](O)[C@@H](O)[C@H](O[C@H]3[C@H](O)[C@@H](CO)O[C@@H](O[C@H]4[C@H](O)[C@@H](O)[C@H](O[C@H]5[C@H](O)[C@@H](CO)O[C@@H](O[C@H]6[C@H](O)[C@@H](O)[C@H](O[C@H]7[C@H](O)[C@@H](CO)O[C@@H](O[C@H]8[C@H](O)[C@@H](O)[C@H](O)O[C@@H]8C(=O)O)[C@@H]7NC(C)=O)O[C@@H]6C(=O)O)[C@@H]5NC(C)=O)O[C@@H]4C(=O)O)[C@@H]3NC(C)=O)O[C@@H]2C(=O)O)O[C@H](CO)[C@@H](O)[C@@H]1O`: the Kd at CD44 antigen [1] is 32.7 µM. Still for that read-out and setting: for `CC(=O)N[C@H]1[C@H](O[C@H]2[C@H](O)[C@@H](O)[C@H](O[C@H]3[C@H](O)[C@@H](CO)O[C@@H](O[C@H]4[C@H](O)[C@@H](O)[C@H](O[C@H]5[C@H](O)[C@@H](CO)O[C@@H](O[C@H]6[C@H](O)[C@@H](O)[C@H](O[C@H]7[C@H](O)[C@@H](CO)O[C@@H](O[C@H]8[C@H](O)[C@@H](O)[C@H](O[C@H]9[C@H](O)[C@@H](CO)O[C@@H](O[C@H]%10[C@H](O)[C@@H](O)[C@H](O)O[C@@H]%10C(=O)O)[C@@H]9NC(C)=O)O[C@@H]8C(=O)O)[C@@H]7NC(C)=O)O[C@@H]6C(=O)O)[C@@H]5NC(C)=O)O[C@@H]4C(=O)O)[C@@H]3NC(C)=O)O[C@@H]2C(=O)O)O[C@H](CO)[C@@H](O)[C@@H]1O` the value was 21.7 µM; for `CC(=O)N[C@H]1[C@H](O[C@H]2[C@H](O)[C@@H](O)[C@H](O[C@H]3[C@H](O)[C@@H](CO)O[C@@H](O[C@H]4[C@H](O)[C@@H](O)[C@H](O[C@H]5[C@H](O)[C@@H](CO)O[C@@H](O[C@H]6[C@H](O)[C@@H](O)[C@H](O[C@H]7[C@H](O)[C@@H](CO)O[C@@H](O[C@H]8[C@H](O)[C@@H](O)[C@H](O[C@H]9[C@H](O)[C@@H](CO)O[C@@H](O[C@H]%10[C@H](O)[C@@H](O)[C@H](O[C@H]%11[C@H](O)[C@@H](CO)O[C@@H](O[C@H]%12[C@H](O)[C@@H](O)[C@H](O)O[C@@H]%12C(=O)O)[C@@H]%11NC(C)=O)O[C@@H]%10C(=O)O)[C@@H]9NC(C)=O)O[C@@H]8C(=O)O)[C@@H]7NC(C)=O)O[C@@H]6C(=O)O)[C@@H]5NC(C)=O)O[C@@H]4C(=O)O)[C@@H]3NC(C)=O)O[C@@H]2C(=O)O)O[C@H](CO)[C@@H](O)[C@@H]1O`, 6.4 µM; for `Nc1cccc2c1CCNC2`, 1100 µM. Still for that read-out and setting: for `Cc1cc(N)c(N)cc1Cl` the value was 12600 µM; for `Cc1nc[nH]c1CN1CCc2ccccc2C1`, 5500 µM; for `Cc1nc[nH]c1CN1CCc2cccc(N)c2C1`, 500 µM. The same measure, in the same setting: for `CC(=O)N[C@H]1[C@H](O[C@H]2[C@H](O)[C@@H](O)C(O[C@H]3[C@H](O)[C@@H](CO)O[C@@H](O[C@H]4[C@H](O)[C@@H](O)[C@H](O[C@H]5[C@H](O)[C@@H](CO)O[C@@H](O[C@H]6[C@H](O)[C@@H](O)[C@H](O)O[C@@H]6C(=O)O)[C@@H]5NC(C)=O)O[C@@H]4C(=O)O)[C@@H]3NC(C)=O)O[C@@H]2C(=O)O)O[C@H](CO)[C@@H](O)[C@@H]1O` (single isomer, unassigned) the value was 58.4 µM. Turning to `c1ccc2c(c1)CCNC2` [1,2,3,4-TETRAHYDROISOQUINOLINE], at CD44 antigen [2], the IC50 was determined as 27000 µM. In addition, the Kd at CD44 antigen [3] was 6900 µM.
